We go through 16 molecules from US20240423968A1, “USE OF PROTEASOME-TARGETING SMALL MOLECULES TO MITIGATE MUSCLE WASTING” (The Board of Regents of the University of Texas System, priority 2023, published 2024).

Experiment [1] addresses 20S human housekeeping proteasome (Homo sapiens, UniProt P28074). As to the kind of experiment: 20S ChT-L proteolytic activity assay (Suc-LLVY-AMC hydrolysis, Rpt5 peptide-activated). The settings on record: for activity against 20S ChT-L proteolysis, in words: SAR comparison. In kind it is biochemical. The procedure: Compounds were evaluated for proteasome activity using the 20S human housekeeping proteasome. It was activated with the Rpt5 derived 10-residue peptide that contains the C-terminal HbYX (hydrophobic-Tyr-any AA) motif activating the proteasome in trans and to some extend mimic the activation by the 19S regulatory particle (Osmulski and Gaczynska (2013) Molecular pharmacology 84: 104-113; Smith et al. (2006) J. Struct. Biol. 156: 72-83; Smith et al. (2007) Mol. Cell 27: 731-744). Proteolytic activity was monitored over time using a fluorogenic peptide substrate specific for the chymotrypsin-like active center (ChT-L, Suc-LLVY-AMC) in the presence of a concentration range of the inhibitors. In this activity assay, hydrolysis of the substrate results in release of the highly fluorescent aminomethylcoumarin fluorophore. The linear portions of the fluorescence intensity plots were used to calculate the rates of Suc-LLVY-AMC hydrolysis and an IC50 (concentration of drug at which 50% of the maximum rate inhibition occurs) is determined.

A further experiment relates to C2C12 myotubes. Put plainly: Myotube morphology (diameters) in the TNFα-induced muscle atrophy cell culture model. Format: cell-based, mouse. The settings on record: for myotube morphology when applied alongside TNFα: TNFα 15 ng/ml for 72 hours, compound added together with TNFα; for effect on cell morphology in the control: compound without TNFα. The procedure: Mouse C2C12 myoblasts were purchased in American Tissue Type Collection (ATCC CRL-1772) were cultured in Dulbecco's modified Eagle's medium (DMEM) supplementec with 15% fetal bovine serum (FBS) and penicillin/streptomycin, at 37° C. and 5% CO2. After reaching confluence the myoblasts were differentiated into myotubes by culturing for 72 hours under low-serum conditions (2% horse serum, 0.5 microgram/ml insulin. After that, model muscle atrophy was induced by the treatment with tumor necrosis factor alpha (TNFα) at 15 ng/ml for 72 hours. Vehicle (dimethylsulfoxide; DMSO) or desired compounds (B1, C3, bortezomib) were added to the culture medium together with TNFα.
Myotubes were visualized as described in Eric J. Stevenson, et al., Journal of Applied Physiology 2005 98:4, 1396-1406. All myotubes analyzed in randomly selected microscope fields, with three diameters per tube and at least 50 myotubes analyzed per experimental point.
The diameters of C2C12 myotubes can be utilized to look for indications of degeneration.

The subject of experiment [2] is C2C12-derived mouse myocytes. As to the kind of experiment: Cellular AFM: cell surface isotropy (cytoskeleton organization) of model myotubes. In kind it is cell-based. Conditions: compound accompanies TNFα; AFM roughness analysis. The procedure: Cultured cells growing on dishes were scanned with a Catalyst Atomic Force Microscope (Bruker) mounted on a Nikon Ti inverted epifluorescent microscope. Nanomechanical parameters of cells were collected in the Quantitative Nanomechanical Mapping (PF-QNM) mode of the AFM. Before AFM imaging, optical images were recorded for each cell. SCANASYST-AIR probes were used for imaging after their spring constant was determined with the thermal tuning. Cell boundaries were located with peak force error (PFE) AFM images and further verified with height images. […] Mode values of the mechanical parameters for individual cells were calculated from the corresponding distribution histograms. The Texture Aspect Ratio, as a measure of the spatial isotropy or directionality of the surface texture was calculated from the square height images of cells after applying the first order flatten function (Roughness Analysis in NanoScope Analysis v. 1.7). […]
Cellular atomic force microscopy (AFM) of C2C12-derived mouse myocytes was utilized to show the effect of TNFα on the cytosketon organization of the myotube surface patterns (FIG. 5). The regularity of the pattern can be assessed by roughness analysis of the AFM images.
The surface isotropy parameter can quantify the regularity of the patterns observed in AFM. […]

A further experiment concerns C2C12 cells. Put plainly: Principal component analysis of AFM-assessed mechanical parameters of model myotubes. Conditions: C2C12 cells treated with TNFα plus compound. In kind it is cell-based, mouse. Here is the method:
Cultured cells growing on dishes were scanned with a Catalyst Atomic Force Microscope (Bruker) mounted on a Nikon Ti inverted epifluorescent microscope. Nanomechanical parameters of cells were collected in the Quantitative Nanomechanical Mapping (PF-QNM) mode of the AFM. Before AFM imaging, optical images were recorded for each cell. SCANASYST-AIR probes were used for imaging after their spring constant was determined with the thermal tuning. Cell boundaries were located with peak force error (PFE) AFM images and further verified with height images. Nanomechanical parameters of cells were captured in three separate PF-QNM channels: elasticity (or stiffness—the Young's modulus), deformation and adhesion. Analysis of these parameters was performed with NanoScope Analysis software v. 1.7 (Osmulski, P. A., et al., Cancer Res. 2021 Aug. 1; 81(15):4110-4123). Force curves were fit to the Sneddon model. Mode values of the mechanical parameters for individual cells were calculated from the corresponding distribution histograms. The Texture Aspect Ratio, as a measure of the spatial isotropy or directionality of the surface texture was calculated from the square height images of cells after applying the first order flatten function (Roughness Analysis in NanoScope Analysis v. 1.7).
Mouse C2C12 myoblasts were purchased in American Tissue Type Collection (ATCC CRL-1772) were cultured in Dulbecco's modified Eagle's medium (DMEM) supplementec with 15% fetal bovine serum (FBS) and penicillin/streptomycin, at 37° C. and 5% CO2. […]
Principal component analysis (PCA) was utilized to evaluate the AFM-assessed mechanical parameters of model myotubes in C2C12 cells treated with TNFα alone or with compounds B1 or C3. […]

For a further experiment, the system named is 26S holoenzyme. As to the kind of experiment: 26S activity in lysates (in-gel activity assay, Suc-LLVY-MCA overlay). In kind it is cell-based, mouse. Conditions: model-wasted cells. The text has this: (§1) The mechanism of the anti-wasting action of proteasome modulators can be probed by measuring the 26S activity in lysates and measuring the levels of autophagy-related protein 7 (ATG7) in lysates. Excessive activity of 26S holoenzyme bears prime responsibility for degradation of muscle proteins during wasting. […] Autophagy, alongside proteasome pathway, aggravates degeneration.

Experiment [3] has as its system autophagy-related protein 7 (ATG7). As to the kind of experiment: Levels of autophagy-related protein 7 (ATG7) in lysates (Western blotting). Format: cell-based, mouse. The settings on record: model-wasted cells.
Excerpt: as §1

Experiment [4] relates to myofibers in quadriceps of tumor-bearing mice. Put plainly: In vivo mouse model of cancer cachexia (nude mice xenografted with PC3 cells), quadriceps myofiber diameters, H&E. Here is the method:
The mouse model of cancer-related muscle wasting consistent of nude mice xenografted with human cultured androgen-resistant prostate cancer PC3 cells. The mice were treated intra-tumorally (IT) with the vehicle (dimethylsulfoxide; DMSO); 8 control mice) or with 10 mg/kg of compound 3. Three injections per week (Mondays, Wednesdays, and Fridays) were carried for three weeks. After that, mice were sacrificed and quadriceps muscle tissues were preserved by standard formalin fixing. Muscle tissue slices were stained with hematoxilin and eosin (H&E standard staining) to visualize muscle fibers and enable myofiber diameter measurements under a standard microscope. Myofibers for 4 control (vehicle-treated) and 4 compound 3-treated mice were measured.
The quadriceps muscle in tumor-bearing mice treated with C3 […] a weeks for three weeks was compared to control using H&E-stained tissues slices (FIG. 10). Frequency analysis of diameters of myofibers (400 myofibers each) from tumor-bearing mice (4 each of the control-vehicle and c3 (10 mg/kg)) was performed (FIG. 11).

Setting [5] is: Table 2, pipecolic acid derivatives, ChT-L activity of 20S, read-out: IC50.
[6] abbreviates: read-out: IC50, ChT-L activity of the 20S proteasome.
Where [7] appears, read: Table 3, proline derivatives, ChT-L activity of 20S, read-out: IC50.

Read-outs that look alike come from different tables or passages of the source.

With `COc1cc(CCCOC(=O)C2CCCCN2C(=O)C(=O)C2CCCCC2)cc(OC)c1OC` (racemic) [B1], in experiment [1] (setting [5]), the IC50 worked out at 5.8 µM. Further, in the experiment on C2C12 myotubes, the “myotube morphology when applied alongside TNFα” value (from here on “myotube morphology”) is “restored the morphogy to control-like status” and the “effect on cell morphology in the control” value is “no effect on the cell morphology”. The “cell surface patterning (surface isotropy)” value in experiment [2] is recorded as “remains control-like”. Besides, the “AFM-assessed mechanical parameters (PCA phenotype)” value (shortened to “AFM-assessed mechanical parameters”) in the experiment with C2C12 cells is “preserve the control-like phenotypes”. In the experiment on 26S holoenzyme, the “26S activity in lysates” value is “mitigates the activity”. For the same molecule, the “autophagy (ATG7 levels in lysates)” value in experiment [3] is listed as “does not affect or mitigates autophagy”.
Turning to `COc1cc(CCCOC(=O)C2CCCCN2C(=O)OCc2ccccc2)cc(OC)c1OC` (racemic) [Compound 2], in experiment [1] (setting [6]), the IC50 was determined as 11.5 µM.
On to `COc1cc(CCCOC(=O)[C@@H]2CCCCN2C(=O)OCc2ccccc2)cc(OC)c1OC` [Compound 3], for which the IC50 in experiment [1] (setting [5]) was determined as 2 µM. Moreover, in experiment [1] (setting [6]), the IC50 worked out at 3.1 µM. Moreover, in the experiment on C2C12 myotubes, the “myotube morphology” value is reported as “restored the morphogy to control-like status” and the “effect on cell morphology in the control” value is listed as “no effect on the cell morphology”. For the same molecule, in experiment [2], the “cell surface patterning (surface isotropy)” value is on record as “remains control-like”. In addition, the “AFM-assessed mechanical parameters” value with C2C12 cells is given as “preserve the control-like phenotypes”. In the experiment on 26S holoenzyme, the “26S activity in lysates” value was “mitigates the activity”. Also, the “autophagy (ATG7 levels in lysates)” value in experiment [3] is “does not affect or mitigates autophagy”. Further, the “diameters of myofibers (frequency analysis)” value in experiment [4] (400 myofibers each, 4 mice each, 10 mg/kg vs control-vehicle, difference significant at p<1.47×10^−21) is “Higher values of myofiber diameters”. Moreover, the “myofiber morphology in quadriceps” value in experiment [4] (tumor-bearing mice, 10 mg/kg intra-tumorally, three weeks, vs vehicle) is “improved myofiber morphology”.
Regarding `COc1cc(CCCOC(=O)[C@@H]2CCCCN2C(=O)OCC(C)C)cc(OC)c1OC` [Compound 4], in experiment [1] (setting [6]), the IC50 was 15.2 µM.
In the case of `COC(=O)N1CCCC[C@H]1C(=O)OCCCc1cc(OC)c(OC)c(OC)c1` [Compound 5], the “activity against 20S ChT-L proteolysis, in words” value (“activity … in words” below) in experiment [1] is “completely abrogated activity”. In addition, in experiment [1] (setting [5]), the IC50 is more than 50 µM.
As to `COc1cc(CCOC(=O)[C@@H]2CCCCN2C(=O)OCc2ccccc2)cc(OC)c1OC` [Compound 6], the IC50 in experiment [1] (setting [5]) was found to be 20.1 µM.
As for `COc1cc(COC(=O)[C@@H]2CCCCN2C(=O)OCc2ccccc2)cc(OC)c1OC` [Compound 7], the “activity … in words” value in experiment [1] is listed as “significantly reduced its activity”. The IC50 in experiment [1] (setting [5]) is 19.8 µM.
On to `O=C(OCCCc1ccccc1)[C@@H]1CCCCN1C(=O)OCc1ccccc1` [Compound 8], for which the “activity … in words” value in experiment [1] is reported as “significantly reduced its activity”. In addition, in experiment [1] (setting [5]), the IC50 came out at 2.6 µM.
For `CCCOC(=O)[C@@H]1CCCCN1C(=O)OCc1ccccc1` [Compound 9], the IC50 in experiment [1] (setting [5]) was more than 50 µM.
`O=C(O)[C@@H]1CCCCN1C(=O)OCc1ccccc1` [Compound 10]: the IC50 in experiment [1] (setting [5]) was more than 50 µM.
As to `COc1cc(CCCOC(=O)[C@@H]2CCCN(C(=O)OCc3ccccc3)C2)cc(OC)c1OC` [Compound 11], in experiment [1] (setting [5]), the IC50 is 14.7 µM.
Consider `COc1cc(CCCOC(=O)[C@@H]2CCCN2C(=O)OCc2ccccc2)cc(OC)c1OC` [Compound 12], for which the “activity … in words” value in experiment [1] is “modest activity”. Also, in experiment [1] (setting [7]), the IC50 amounted to 23.8 µM.
Take `O=C(OCCCc1ccccc1)[C@@H]1CCCN1C(=O)OCc1ccccc1` [Compound 13]: the IC50 in experiment [1] (setting [6]) is 6.6 µM.
Consider `O=C(OCCc1ccccc1)[C@@H]1CCCN1C(=O)OCc1ccccc1` [Compound 14], for which the “activity … in words” value in experiment [1] was “decreased activity”. Moreover, the IC50 in experiment [1] (setting [7]) was 19.2 µM.
As to `O=C(OCc1ccccc1)[C@@H]1CCCN1C(=O)OCc1ccccc1` [Compound 15], the “activity … in words” value in experiment [1] is reported as “decreased activity”. Besides, the IC50 in experiment [1] (setting [7]) was 33.5 µM.
Consider `CC(C)C[C@H](NC(=O)[C@H](Cc1ccccc1)NC(=O)c1cnccn1)B(O)O` [bortezomib, reference compound], for which, in the experiment on C2C12 myotubes, the “myotube morphology” value is listed as “failed to protect the myotubes” and the “effect on cell morphology in the control” value is “harmed the cells”. Moreover, the “AFM-assessed mechanical parameters” value with C2C12 cells was “does not protect the phenotypes”. The “autophagy (ATG7 levels in lysates)” value in experiment [3] is “upregulates autophagy”.
